# Reference: patent US20160243022A1, “Use of Fermented Milk Product for Skin Treatment” (GIVAUDAN S.A., priority 2006, published 2016)
# System: normal human dermal fibroblasts (NHDF)
# Experiment: [3H] proline incorporation into intracellular and ECM layer proteins (collagen synthesis)
# Format: cell-based
# Settings: 20 micro g/ml
# Description: Normal human dermal fibroblasts (NHDF) were cultured in-vitro with radio labelled [^3H] proline. Collagen is a proline-rich protein. The level of radio labelled proline found in proteins, following culturing of the NHDF, is a measure of the rate of collagen synthesis. Yogurtene™ can be added to the cell culture to measure the effect of Yogurtene™ on the rate of proline uptake (collagen synthesis).
# The study investigated the increase in radio labelled proline found in: (i) soluble/secreted proteins, and (ii) intracellular and extra-cellular matrix (ECM) proteins.
# Beta-Transforming Growth Factor (β-TGF) and ascorbic acid are known collagen synthesis promoters and were used as controls in both studies.
compound,measurement,value
O=C1O[C@H]([C@@H](O)CO)C(O)=C1O [Ascorbic acid],Proline incorporation into intracellular & ECM layer proteins,12764 Count/min
